From article PMC9697930 (International Journal of Molecular Sciences, 2022)

Experiments:
CYP2C19 = target: T1, CYP2C19 (Homo sapiens, UniProt P33261); experiment: Incubation assay with recombinant CYP (Vivid kit); format: biochemical; settings: recombinant enzyme, Vivid substrate
T1 construct: purchased
Procedure: (§1) Possible interactions of examined PARPi with human CYP3A4, CYP2C8, CYP2D6, CYP1A2, CYP2B6, CYP2C9, CYP2C19, and CYP3A5 were evaluated using commercial Vivid CYP450 Screening Kits. […] CYP isoenzymes were mixed with the NADPH-regeneration system, and resulting solutions were added to the wells. After 10 min preincubation, the solution of NADP ^+ and a particular Vivid substrate were added to start the CYP-catalyzed reaction. Fluorescence corresponding to the levels of produced metabolites was detected using the microplate reader Infinite […] (Tecan, Männedorf, Switzerland) in a kinetic mode (1-minute intervals). The data from the 15 min interval were selected to analyze the results.

CYP1A2 = target: T2, CYP1A2 (Homo sapiens, UniProt P05177); experiment: Incubation assay with recombinant CYP (Vivid kit); format: biochemical; settings: recombinant enzyme, Vivid substrate
T2 construct: purchased
T2 sequence (P05177 whole entry): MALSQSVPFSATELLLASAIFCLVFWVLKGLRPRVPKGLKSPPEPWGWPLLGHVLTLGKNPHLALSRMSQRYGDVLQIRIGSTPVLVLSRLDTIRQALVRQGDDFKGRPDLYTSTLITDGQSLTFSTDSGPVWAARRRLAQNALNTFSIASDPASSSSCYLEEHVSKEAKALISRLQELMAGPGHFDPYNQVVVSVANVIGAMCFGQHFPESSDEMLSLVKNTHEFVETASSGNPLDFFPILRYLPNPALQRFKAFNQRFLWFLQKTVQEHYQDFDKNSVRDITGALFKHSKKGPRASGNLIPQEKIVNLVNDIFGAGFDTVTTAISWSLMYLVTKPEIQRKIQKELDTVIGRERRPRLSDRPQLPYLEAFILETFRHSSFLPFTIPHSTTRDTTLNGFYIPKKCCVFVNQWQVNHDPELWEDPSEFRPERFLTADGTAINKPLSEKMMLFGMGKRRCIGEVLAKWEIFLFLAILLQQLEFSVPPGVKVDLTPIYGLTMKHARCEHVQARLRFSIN
Procedure: as §1

CYP3A5 = target: T3, CYP3A5 (Homo sapiens, UniProt P20815); experiment: Incubation assay with recombinant CYP (Vivid kit); format: biochemical; settings: recombinant enzyme, Vivid substrate
T3 construct: purchased
T3 sequence (P20815 whole entry): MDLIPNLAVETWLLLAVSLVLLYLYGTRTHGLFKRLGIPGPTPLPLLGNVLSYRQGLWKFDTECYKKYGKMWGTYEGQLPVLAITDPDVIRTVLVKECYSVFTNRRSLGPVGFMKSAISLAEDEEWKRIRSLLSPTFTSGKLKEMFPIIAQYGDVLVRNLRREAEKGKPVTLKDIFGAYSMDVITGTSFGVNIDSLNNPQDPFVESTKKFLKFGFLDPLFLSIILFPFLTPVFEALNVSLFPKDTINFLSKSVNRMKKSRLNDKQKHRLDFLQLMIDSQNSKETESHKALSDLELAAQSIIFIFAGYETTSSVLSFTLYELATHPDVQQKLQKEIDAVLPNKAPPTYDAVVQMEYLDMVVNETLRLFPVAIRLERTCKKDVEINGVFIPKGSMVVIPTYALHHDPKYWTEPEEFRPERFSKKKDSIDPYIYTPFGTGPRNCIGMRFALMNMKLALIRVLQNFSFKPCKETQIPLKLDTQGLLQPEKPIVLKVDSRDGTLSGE
Procedure: as §1

CYP2B6 = target: T4, CYP2B6 (Homo sapiens, UniProt P20813); experiment: Incubation assay with recombinant CYP (Vivid kit); format: biochemical; settings: recombinant enzyme, Vivid substrate
T4 construct: purchased
T4 sequence (P20813 whole entry): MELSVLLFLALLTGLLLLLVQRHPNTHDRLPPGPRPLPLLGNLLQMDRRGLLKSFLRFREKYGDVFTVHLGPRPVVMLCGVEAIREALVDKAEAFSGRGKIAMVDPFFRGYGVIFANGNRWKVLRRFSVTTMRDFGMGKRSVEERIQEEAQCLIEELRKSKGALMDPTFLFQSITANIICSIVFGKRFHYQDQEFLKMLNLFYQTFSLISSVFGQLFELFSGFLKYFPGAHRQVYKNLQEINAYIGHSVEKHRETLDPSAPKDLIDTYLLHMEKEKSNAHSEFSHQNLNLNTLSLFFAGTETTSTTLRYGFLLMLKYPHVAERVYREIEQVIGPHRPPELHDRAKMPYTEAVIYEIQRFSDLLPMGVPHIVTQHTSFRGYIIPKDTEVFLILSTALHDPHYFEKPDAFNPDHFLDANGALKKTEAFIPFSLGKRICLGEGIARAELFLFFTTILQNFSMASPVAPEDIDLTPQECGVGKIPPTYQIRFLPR
Procedure: as §1

CYP2C9 = target: T5, CYP2C9 (Homo sapiens, UniProt P11712); experiment: Incubation assay with recombinant CYP (Vivid kit); format: biochemical; settings: recombinant enzyme, Vivid substrate
T5 construct: purchased
T5 sequence (P11712 whole entry): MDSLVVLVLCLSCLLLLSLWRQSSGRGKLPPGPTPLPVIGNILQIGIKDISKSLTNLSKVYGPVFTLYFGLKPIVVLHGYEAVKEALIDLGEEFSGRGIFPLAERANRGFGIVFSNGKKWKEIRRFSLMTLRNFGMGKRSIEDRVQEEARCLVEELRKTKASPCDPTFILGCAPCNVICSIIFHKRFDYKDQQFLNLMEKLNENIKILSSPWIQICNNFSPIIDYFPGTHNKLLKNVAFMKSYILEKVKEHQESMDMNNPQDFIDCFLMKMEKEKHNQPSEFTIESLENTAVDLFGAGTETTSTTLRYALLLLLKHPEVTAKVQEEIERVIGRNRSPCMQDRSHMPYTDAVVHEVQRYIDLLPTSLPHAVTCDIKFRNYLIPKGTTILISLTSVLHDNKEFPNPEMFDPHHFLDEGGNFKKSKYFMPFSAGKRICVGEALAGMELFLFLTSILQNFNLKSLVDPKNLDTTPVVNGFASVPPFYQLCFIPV
Procedure: as §1

CYP2C8 = target: T6, CYP2C8 (Homo sapiens, UniProt P10632); experiment: Incubation assay with recombinant CYP (Vivid kit); format: biochemical; settings: recombinant enzyme, Vivid substrate
T6 construct: purchased
T6 sequence (P10632 whole entry): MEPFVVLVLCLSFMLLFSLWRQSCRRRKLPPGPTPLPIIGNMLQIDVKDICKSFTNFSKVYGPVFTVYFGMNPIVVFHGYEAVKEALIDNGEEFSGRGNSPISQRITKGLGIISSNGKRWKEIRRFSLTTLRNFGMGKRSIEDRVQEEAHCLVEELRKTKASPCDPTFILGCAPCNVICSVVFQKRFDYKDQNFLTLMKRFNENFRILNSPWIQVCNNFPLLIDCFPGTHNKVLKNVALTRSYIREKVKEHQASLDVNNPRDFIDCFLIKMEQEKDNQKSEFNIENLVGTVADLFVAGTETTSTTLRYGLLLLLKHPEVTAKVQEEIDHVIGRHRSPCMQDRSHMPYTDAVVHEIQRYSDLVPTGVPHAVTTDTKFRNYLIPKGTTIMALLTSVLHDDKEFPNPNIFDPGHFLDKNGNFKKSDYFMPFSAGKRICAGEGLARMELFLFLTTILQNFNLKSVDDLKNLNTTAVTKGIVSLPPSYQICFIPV
Procedure: as §1

CYP2D6 = target: T7, CYP2D6 (Homo sapiens, UniProt P10635); experiment: Incubation assay with recombinant CYP (Vivid kit); format: biochemical; settings: recombinant enzyme, Vivid substrate
T7 construct: purchased
T7 sequence (P10635 whole entry): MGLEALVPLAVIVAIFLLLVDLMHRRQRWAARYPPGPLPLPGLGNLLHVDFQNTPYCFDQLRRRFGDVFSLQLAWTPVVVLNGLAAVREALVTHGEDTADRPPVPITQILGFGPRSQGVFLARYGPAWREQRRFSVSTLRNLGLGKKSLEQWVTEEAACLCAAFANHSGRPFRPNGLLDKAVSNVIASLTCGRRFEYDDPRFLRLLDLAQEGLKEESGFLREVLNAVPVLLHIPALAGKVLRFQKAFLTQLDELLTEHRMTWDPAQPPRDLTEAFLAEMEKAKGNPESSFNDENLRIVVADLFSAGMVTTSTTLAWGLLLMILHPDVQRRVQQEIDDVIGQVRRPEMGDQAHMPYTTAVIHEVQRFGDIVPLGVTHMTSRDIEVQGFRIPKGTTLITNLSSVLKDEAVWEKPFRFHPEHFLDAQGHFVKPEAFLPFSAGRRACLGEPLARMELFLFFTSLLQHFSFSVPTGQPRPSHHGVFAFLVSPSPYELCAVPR
Procedure: as §1

ABCB1 [1] = target: T8, ABCB1 (Homo sapiens, UniProt P08183); set-up: expressed in transfected cells; host or cells: MDCKII (canine kidney) subline MDCKII-ABCB1, gift of Dr. Alfred Schinkel; settings: Abcb1-knockout mice, MDCKII-ABCB1 cells; cited from earlier work
T8 sequence (P08183 whole entry): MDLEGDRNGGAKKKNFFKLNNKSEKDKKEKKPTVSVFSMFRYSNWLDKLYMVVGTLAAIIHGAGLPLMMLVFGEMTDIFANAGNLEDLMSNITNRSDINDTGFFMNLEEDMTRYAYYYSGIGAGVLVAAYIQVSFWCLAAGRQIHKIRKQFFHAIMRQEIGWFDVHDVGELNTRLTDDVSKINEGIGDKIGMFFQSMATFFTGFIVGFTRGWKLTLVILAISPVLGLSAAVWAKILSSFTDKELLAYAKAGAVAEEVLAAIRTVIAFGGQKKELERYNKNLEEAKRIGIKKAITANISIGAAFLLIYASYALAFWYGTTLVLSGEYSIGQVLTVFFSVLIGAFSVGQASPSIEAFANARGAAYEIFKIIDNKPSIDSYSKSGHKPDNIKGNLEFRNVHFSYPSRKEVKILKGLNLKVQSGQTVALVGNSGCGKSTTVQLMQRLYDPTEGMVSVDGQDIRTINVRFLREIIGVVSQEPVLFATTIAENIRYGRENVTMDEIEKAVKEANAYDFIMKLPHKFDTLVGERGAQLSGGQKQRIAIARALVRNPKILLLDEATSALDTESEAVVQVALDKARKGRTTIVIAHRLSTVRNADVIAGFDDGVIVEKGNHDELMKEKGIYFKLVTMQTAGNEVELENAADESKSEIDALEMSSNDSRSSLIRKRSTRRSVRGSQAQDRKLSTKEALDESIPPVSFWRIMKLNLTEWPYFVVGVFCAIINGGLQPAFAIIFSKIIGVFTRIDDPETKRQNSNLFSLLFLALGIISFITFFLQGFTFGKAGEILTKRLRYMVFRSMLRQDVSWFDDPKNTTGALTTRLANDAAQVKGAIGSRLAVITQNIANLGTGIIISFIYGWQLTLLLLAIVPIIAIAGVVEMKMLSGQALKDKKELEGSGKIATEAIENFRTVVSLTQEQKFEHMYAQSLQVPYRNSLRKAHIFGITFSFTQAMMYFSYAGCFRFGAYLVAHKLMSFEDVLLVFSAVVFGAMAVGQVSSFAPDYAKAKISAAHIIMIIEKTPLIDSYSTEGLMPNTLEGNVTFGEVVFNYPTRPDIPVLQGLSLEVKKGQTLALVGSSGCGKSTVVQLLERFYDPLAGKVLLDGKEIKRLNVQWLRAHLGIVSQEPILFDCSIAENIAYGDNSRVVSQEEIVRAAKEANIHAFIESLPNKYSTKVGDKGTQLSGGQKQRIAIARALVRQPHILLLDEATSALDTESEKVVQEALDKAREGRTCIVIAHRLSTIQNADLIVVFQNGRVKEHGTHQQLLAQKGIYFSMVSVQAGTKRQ

ABCG2 [2] = settings: Abcg2-knockout mice, MDCKII-ABCG2 cells; cited from earlier work
A431-ABCG2 = experiment: MTT proliferation / drug combination assay; format: cell-based; settings: Homo sapiens; A431-ABCG2; comparative MTT, 48 h; read-out: antiproliferative IC50
Procedure: (§2) The viability MTT assay was employed in several experimental sets, including induction studies, comparative viability assays, and drug combinations. First, 1.3 × 10^4 (MDCKII sublines), 1.2 × 10^4 (A431 sublines), 1.5 × 10^4 (MCF-7), and 1.0 × 10^4 (primary NSCLC explants) cells were seeded in 96-well plates. After seeding, cells were left to refresh in incubator for 24 h. Secondly, the medium was removed, and the serial dilutions of the drugs or drug combinations were added to the cells. Next to these variants, a medium with 40% DMSO and vehicle-containing media were tested as nonviable and unaffected viability controls, respectively. After an additional 48 h of incubation, the cells were washed with 1 × PBS and then treated with 1 mg/mL MTT solution in Opti-MEM. Subsequently, cells were incubated for 60 min under standard conditions. After MTT treatment, generated formazan crystals were solubilized with DMSO for 10 min. Wavelengths of 570 nm (formazan) and 690 nm (background) were used for absorbance measurements using a microplate reader Infinite 200 Pro NanoQuant (Tecan, Männedorf, Switzerland).
(§3) In vitro cell lines (MDCKII and A431) and primary NSCLC explants were seeded (see densities above) in 96-well plates and incubated for 24 h. […] Combined cells were incubated with the tested compounds for 48 h, and subsequently, MTT assay was performed to assess cell viability as described above. Besides IC50-shift analysis, CompuSyn 3.0.1 software (ComboSyn Inc., Paramus, NJ, USA) was used for the additional analysis of obtained data. This software works with the algorithms of the combination index (CI) method of Chou–Talalay, which is frequently used for the accurate quantification of drug combinations’ outcomes. According to the CI method principle, the combination effects were separated into three categories, including synergistic (CI < 0.9), additive (CI between 0.9–1.1), or antagonistic (CI > 1.1) ones.

A431-ABCC1 = experiment: MTT proliferation / drug combination assay; format: cell-based; settings: Homo sapiens, comparative MTT, 48 h, read-out: antiproliferative IC50
Procedure: as §2, §3

A431-parent = experiment: MTT proliferation / drug combination assay; format: cell-based; settings: Homo sapiens, A-431; A431 parental; comparative MTT, 48 h; read-out: antiproliferative IC50
Procedure: as §2, §3

ABCG2 [3] = settings: 12-days exposure; MCF-10A; cited from earlier work
ABCB1 [4] = target: T8, ABCB1; settings: 12-days exposure; MCF-10A; cited from earlier work
ABCB1 mRNA = experiment: Gene induction study (qRT-PCR) in MCF-7 cells; format: cell-based, Human; settings: 0.5 µM, 24 and 48 h
Procedure: (§4) Gene expression analyses based on quantitative real-time reverse transcription PCR (qRT-PCR) were performed as described previously. MCF-7 cell line (3.8×10^5 cells/well) was seeded in 12-well plates 24 h before induction experiments. […] After 24 and 48 h intervals, samples were collected by using TRI Reagent. Subsequently, total RNA was isolated from the cells using the chloroform/isopropanol method. Reverse transcription of 1 μg RNA to cDNA was conducted with ProtoScript II Reverse Transcriptase using T100 Thermal Cycler (Bio-Rad Laboratories, Hercules, CA, USA) according to the two-step protocol described previously. The expressions of ABCB1, ABCC1, and ABCG2 genes were measured by qRT-PCR using specific TaqMan assays with QuantStudio 6 machine (Life Technologies, Carlsbad, CA, USA). qRT-PCR reactions were run under predefined thermal cycling conditions (95 °C for 10 min, then 40 repeats of a cycle of 95 °C for 15 s and 60 °C for 60 s). GAPDH and B2M were used as house-keeping genes; the fold-changes in target genes’ expressions were determined according to the 2^-ΔΔCt method.

ABCC1 mRNA = experiment: Gene induction study (qRT-PCR) in MCF-7 cells; format: cell-based, Human; settings: 0.5 µM, 24 and 48 h
Procedure: as §4

ABCG2 mRNA = experiment: Gene induction study (qRT-PCR) in MCF-7 cells; format: cell-based, Human; settings: 0.5 µM, 24 and 48 h
Procedure: as §4

T1 sequence (P33261 whole entry): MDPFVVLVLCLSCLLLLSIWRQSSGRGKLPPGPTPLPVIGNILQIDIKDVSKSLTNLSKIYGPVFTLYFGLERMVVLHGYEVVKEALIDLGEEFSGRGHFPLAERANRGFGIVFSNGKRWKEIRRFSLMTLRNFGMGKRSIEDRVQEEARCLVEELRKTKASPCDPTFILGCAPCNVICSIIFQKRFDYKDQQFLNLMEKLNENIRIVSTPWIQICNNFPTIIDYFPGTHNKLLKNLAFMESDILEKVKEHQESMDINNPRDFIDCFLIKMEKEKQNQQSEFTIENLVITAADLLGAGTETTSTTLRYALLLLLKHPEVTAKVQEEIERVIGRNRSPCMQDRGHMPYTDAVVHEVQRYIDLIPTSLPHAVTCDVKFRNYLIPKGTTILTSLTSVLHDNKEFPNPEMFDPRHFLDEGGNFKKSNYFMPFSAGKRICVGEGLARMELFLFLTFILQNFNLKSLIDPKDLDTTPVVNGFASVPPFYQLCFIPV

With `Cn1ncnc1[C@H]1c2n[nH]c(=O)c3cc(F)cc(c23)N[C@@H]1c1ccc(F)cc1` [talazoparib, Talazoparib] the IC50 (CYP2C19) was > 50 µM, the IC50 (CYP1A2) was > 50 µM and the IC50 (CYP3A5) was > 50 µM. The IC50 (CYP2B6) was > 50 µM, the IC50 (CYP2C9) was > 50 µM and the IC50 (CYP2C8) was > 50 µM. For the same compound, the IC50 (CYP2D6) was > 50 µM, the ABCB1 substrate status (ABCB1 [1]) was “substrate of ABCB1” and the ABCG2 substrate status (ABCG2 [2]) was “not of ABCG2”. For the same compound, the IC50 (A431-ABCG2) was 91.8 µM, the IC50 (A431-ABCC1) was 91.5 µM and the IC50 (A431-parent) was 86.8 µM. The “effect on ABCG2 mRNA” value (ABCG2 [3]) was “upregulate”, the “effect on ABCG2 protein level” value (ABCG2 [3]) was “decreased” and the “effect on ABCB1 mRNA” value (ABCB1 [4]) was “upregulate”. The “effect on ABCB1 protein level” value (ABCB1 [4]) was “fluctuating (concentration-dependent induction or downregulation)”, the “change of ABCB1 mRNA expression vs vehicle control” value (ABCB1 mRNA) was “did not trigger the transporters’ expression increase or decrease by more than 100% or 50%” and the “change of ABCC1 mRNA expression vs vehicle control” value (ABCC1 mRNA) was “did not trigger the transporters’ expression increase or decrease by more than 100% or 50%”. The “change of ABCG2 mRNA expression vs vehicle control” value (ABCG2 mRNA) was “did not trigger the transporters’ expression increase or decrease by more than 100% or 50%”.
